Assay results: US10633389B2, “CARM1 inhibitors and uses thereof” (Epizyme, Inc., priority 2013, dated 2020)

What was measured:
[1] = test system: asymmetric di-methyl PABP1 in RKO cells; assay: RKO methylation assay, In Cell Western (ICW) for asymmetric di-methyl PABP1; type: cell-based; settings: Homo sapiens, RKO, Cellular potencies, ICW PABP1me2a
Outline: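 RKO cells treated with compound for 48 h at 37 °C, then fixed, permeabilized and immunostained for asymmetric di-methyl PABP1, with DRAQ5 as DNA stain. Infrared 700/800 nm signal ratio normalized to DMSO and 20 μM reference-compound controls; IC50 from triplicate wells.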

[2] = molecular target: human CARM1 (PRMT4) (Homo sapiens (Human), UniProt Q86X55); assay: CARM1 enzyme assay on peptide substrate (3H-SAM Flashplate); settings: Biochemical potencies, read-out: Biochem IC50
Chain of human CARM1 (PRMT4) (Q86X55 other isoform, or with tags, fused parts or gaps isoform Q86X55-1): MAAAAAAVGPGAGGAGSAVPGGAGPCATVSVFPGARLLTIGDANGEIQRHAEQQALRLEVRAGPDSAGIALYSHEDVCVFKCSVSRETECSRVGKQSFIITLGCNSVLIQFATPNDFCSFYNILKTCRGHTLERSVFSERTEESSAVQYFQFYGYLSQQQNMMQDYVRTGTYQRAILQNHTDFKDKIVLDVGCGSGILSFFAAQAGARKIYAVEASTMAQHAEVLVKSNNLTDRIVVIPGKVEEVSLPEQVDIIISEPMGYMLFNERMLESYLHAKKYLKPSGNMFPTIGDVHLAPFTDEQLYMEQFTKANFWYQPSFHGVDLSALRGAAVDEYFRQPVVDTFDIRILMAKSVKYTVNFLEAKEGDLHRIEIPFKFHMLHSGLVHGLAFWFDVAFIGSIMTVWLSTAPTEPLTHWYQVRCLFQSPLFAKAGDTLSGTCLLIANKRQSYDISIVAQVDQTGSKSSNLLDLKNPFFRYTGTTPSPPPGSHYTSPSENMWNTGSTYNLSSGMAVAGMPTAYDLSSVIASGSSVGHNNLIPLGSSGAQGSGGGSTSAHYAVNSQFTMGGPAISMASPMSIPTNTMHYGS

IC50 [1] [µM]	IC50 [2] [µM]	Structure (SMILES)
≥ 20	0.1 to 1	CNCC(O)COc1cccc(-c2nc(NCCCN3CCCC3=O)cc(-c3cc4ccccc4o3)n2)c1 (centres unmarked) [Example 649-1a]
≥ 20	0.1 to 1	CNCC(O)COc1cccc(-c2nc(-c3ccncc3)cc(N(C)C3CCN(C(C)=O)CC3)n2)c1 (centres unmarked) [Example 671-1a]
≥ 20	0.1 to 1	CNCC(O)COc1cccc(-c2nc(NC3CCCC3)c(C)c(N3CCOCC3)n2)c1 (centres unmarked) [Example 683-1a]
10 to 20	0.1 to 1	CNCC(O)COc1cccc(-c2nc(N[C@@H]3CCOC3)c(C)c(N3CCC(C)(O)CC3)n2)c1 (some centres unmarked) [Example 385-1a]
10 to 20	0.1 to 1	CNCC(O)COc1cccc(-c2nc(N3CCOCC3)cc(N(C3CC3)[C@@H]3CCOC3)n2)c1 (some centres unmarked) [Example 360-1a]
10 to 20	1 to 3	CNCC(O)COc1cccc(-c2nc(C(=O)NC3CCOCC3)c(C)c(-c3c(C)noc3C)n2)c1 (centres unmarked) [Example 62-1a]
5 to 10	0.1 to 1	CNCC(O)COc1cccc(-c2nc(-c3c(C)noc3C)c(C)c(N3CCO[C@@H](CO)C3)n2)c1 (some centres unmarked) [Example 123-1a]
10 to 20	0.1 to 1	CNCC(O)COc1cccc(-c2nc(N[C@H]3C[C@H](O)C3)cc(N(C)C3CCOCC3)n2)c1 (some centres unmarked) [Example 590-1a]
10 to 20	0.1 to 1	CNCC(O)COc1cccc(-c2nc(O)c(C)c(-c3c(C)noc3C)n2)c1 (centres unmarked) [Example 73-1a]
≥ 20	0.1 to 1	CNCC(O)COc1cccc(-c2nc(N[C@@H]3CC[C@H](O)C3)c(C)c(N3CCOCC3)n2)c1 (some centres unmarked) [Example 687-1a]
≥ 20	0.1 to 1	CCS(=O)(=O)N1CCN(c2nc(-c3cccc(OCC(O)CNC)c3)nc(NC3CCOCC3)c2C)CC1 (centres unmarked) [Example 668-1a]
10 to 20	1 to 3	CNCC(O)COc1cccc(-c2nc(N[C@@H]3CCOC3)c(C)c(-c3ccc[nH]c3=O)n2)c1 (some centres unmarked) [Example 371-1a]
10 to 20	0.1 to 1	CNCC(O)COc1cccc(-c2nc(N3CCN(CC(F)(F)F)[C@@H](C)C3)cc(N(C)C3CCOCC3)n2)c1 (some centres unmarked) [Example 594-1a]
10 to 20	0.1 to 1	CCc1c(N[C@@H]2CCOC2)nc(-c2cccc(OCC(O)CNC)c2)nc1N1CCOCC1 (some centres unmarked) [Example 404-1a]

More lines, now with the values behind:

Structure (SMILES)	IC50 [1] [µM]	IC50 [2] [µM]
CNCC(O)COc1cccc(-c2nc(NCC(F)(F)F)cc(-c3ccc(S(C)(=O)=O)cc3)n2)c1 (centres unmarked) [Example 627-1a]	≥ 20	0.1 to 1
CNCC(O)COc1cccc(-c2nc(N[C@H]3CCOC3)c(C)c(C3CCOCC3)n2)c1 (some centres unmarked) [Example 347-1a]	10 to 20	0.1 to 1
CNCC(O)COc1cccc(-c2nc(NCCOC)cc(-c3ccnc(OC)c3)n2)c1 (centres unmarked) [Example 638-1a]	≥ 20	0.1 to 1
CNCC(O)COc1cccc(-c2nc(NC3CCOCC3)cc(-c3ccnc(OC)c3)n2)c1 (centres unmarked) [Example 653-1a]	≥ 20	1 to 3
CNCC(O)COc1cccc(-c2nc(N[C@@H]3CCOC3)c(C)c(-c3c(C)ncnc3C)n2)c1 (some centres unmarked) [Example 460-1a]	10 to 20	0.1 to 1
CNCC(O)COc1cccc(-c2nc(N[C@@H]3CCOC3)c(C)c(-c3ccnc(NC)c3)n2)c1 (some centres unmarked) [Example 388-1a]	10 to 20	0.1 to 1
CNCC(O)COc1cccc(-c2nc(N3CCN(CC(F)F)CC3)cc(N(C)C3CCOCC3)n2)c1 (centres unmarked) [Example 518-1a]	5 to 10	0.1 to 1
CNCC(O)COc1cccc(-c2nc(-c3ccn4cnnc4c3)c(C)c(-c3c(C)noc3C)n2)c1 (centres unmarked) [Example 37-1a]	10 to 20	0.1 to 1
CNCC(O)COc1cccc(-c2nc(NC3CCOCC3)c(C)c(N3CCN(C(C)=O)CC3)n2)c1 (centres unmarked) [Example 643-1a]	≥ 20	1 to 3
CNCC(O)COc1cccc(-c2nc(C(=O)NCC3CCOCC3)cc(-c3c(C)noc3C)n2)c1 (centres unmarked) [Example 65-1a]	10 to 20	0.1 to 1
CNCC(O)COc1cc(OC)cc(-c2nc(NC3CCOC3)c(C)c(N3CCN(C(C)=O)[C@@H](C)C3)n2)c1 (some centres unmarked) [Example 432-1a]	10 to 20	0.1 to 1
